Patent US8993282B2, “Carotenoid fermentation method” (JX Nippon Oil & Energy Corporation, priority 2008, dated 2015)

Tests used:
[1] = system: Paracoccus sp. strain L-25; test: Glutamate supplementation, test tube culture, lycopene-producing mutant, carotenoid by HPLC; type: cell-based
Method: (§1) In the examples, carotenoids were quantified by high performance liquid chromatography (HPLC) as follows.
(§2) Two columns of Wakosil-II 5 SIL-100 (φ4.6×250 mm) (Wako Pure Chemical Industries, Ltd., Japan) were connected to each other for use as a column. Elution was performed by flowing an n-hexane-tetrahydrofuran-methanol mixed solution (40:20:1), which was a mobile phase, at a flow rate of 1.0 mL/minute at a constant temperature around room temperature. The measurement was performed as follows. Samples were each dissolved in tetrahydrofuran and then diluted 100-fold with the mobile phase. Each dilution was injected in a volume of 20 μL. The column eluate was detected at a wavelength of 470 nm. As a reference for quantification, astaxanthin (SIGMA, Cat. No. A9335) was used. The astaxanthin concentration of the reference solution was determined using the following equation after measuring the absorbance (A) of the reference solution at 477 nm and the area percentage % (B) of the astaxanthin peak at the time of HPLC analysis under the above conditions. Astaxanthin concentration (mg/L)=A/2150×B×100
The strain E-396 (FERM BP-4283) was mutated with N-methyl-N′-nitro-N-nitrosoguanidine to select mutant strain colonies with red-purple color. Carotenoid compounds in their culture solutions were further analyzed by high performance liquid chromatography to select a strain L-25 specifically producing lycopene.
A medium of the following composition (sucrose 30 g/L, corn steep liquor 30 g/L, potassium dihydrogenphosphate 1.5 g/L, disodium hydrogenphosphate 12-hydrate 3.8 g/L, calcium chloride dihydrate 5.0 g/L, magnesium sulfate -hydrate 0.7 g/L, iron sulfate 7-hydrate 0.3 g/L, pH 7.2) was dispensed in 8 ml volumes into cotton-plugged test tubes having an inner diameter of 18 mm and sterilized in an autoclave at 121° C. for 15 minutes to prepare a test tube medium for seed culture.
Next, a medium of the following composition (glucose 30 g/L, filtered corn steep liquor 5 g/L, ammonium sulfate 1.5 g/L, potassium dihydrogenphosphate 1.5 g/L, disodium hydrogenphosphate 12-hydrate 3.8 g/L, calcium chloride dihydrate 5.0 g/L, magnesium sulfate 7-hydrate 0.7 g/L, iron sulfate 7-hydrate 0.6 g/L, ester-based defoaming agent 0.2 g/L) was dispensed in 8 ml volumes into cotton-plugged test tubes having an inner diameter of 18 mm (2 tubes in total). One of the test tubes was supplemented with monosodium L-glutamate monohydrate to 30 mmol/L, while the other was supplemented with nothing as a control. Finally, the mediums in the tubes were adjusted to pH 7.1 with aqueous ammonia and then sterilized in an autoclave at 121° C. for 20 minutes.
The Paracoccus sp. strain L-25 selected above was inoculated, into the test tube medium for seed culture and then cultured with shaking at 28° C. for 2 days at 300 spin. The resulting culture solution was then inoculated in 0.1 ml volumes into the two test tube mediums and cultured with shaking at 28° C. for 3 days at 300 spm. Each culture solution was measured for its carotenoid concentration by HPLC.

[2] = system: mutant Paracoccus sp. strain Y-1071; test: Glutamate supplementation, 5 L fermentation tank culture, carotenoid by HPLC; type: cell-based
Method: as §1, §2
A medium of the following composition (sucrose 20 g/L, filtered corn steep liquor 5 g/L, potassium dihydrogenphosphate 0.54 g/L, dipotassium hydrogenphosphate 12-hydrate 2.78 g/L, calcium chloride dihydrate 5.0 g/L, magnesium sulfate 7-hydrate 0.7 g/L, iron sulfate 7-hydrate 3.0 g/L, fatty acid-based defoaming agent 0.2 g/L, […]) was dispensed in 100 ml volumes into 500 mL cotton-plugged Erlenmeyer flasks and sterilized in an autoclave at 121° C. for 15 minutes to prepare a flask medium for seed culture in 2 flasks,
Next, a medium of the following composition (sucrose 40 g/L, corn steep liquor 30 g/L, ammonium sulfate 0.5 g/L, potassium dihydrogenphosphate 2.25 g/L, disodium hydrogenphosphate 12-hydrate 5.7 g/L, calcium chloride dihydrate 0.1 g/L, magnesium sulfate 7-hydrate 0.5 g/L, iron sulfate 7-hydrate 5 g/L, fatty acid-based defoaming agent 0.5 g/L) was dispensed in 2.0 L volumes into 5 L fermentation tanks (2 tanks in total). One of the fermentation tanks was supplemented with monosodium L-glutamate monohydrate to 50 mmol/L, while the other was supplemented with nothing as a control. These fermentation tanks were sterilized in an autoclave at 121° C. for 30 minutes,
A loopful of the mutant Paracoccus sp, strain Y-1071 selected in Example 3 was inoculated into the flask medium for seed culture and then cultured with rotary shaking at 28° C. for 2 days at 150 rpm. The resulting culture solution was then inoculated in 80 mL volumes into the individual fermentation tanks, followed by aerobic culture at 28° C. at an aeration volume of 1 vvm for 120 hours. […] during culture, the pH was continuously controlled with 15% aqueous ammonia. Glucose was added in an amount of 30 g on day 1, day 2 and day 3 of culture to prevent glucose depletion. The minimum number of agitation rotations was set to 100 rpm, and the number of agitation rotations was varied such that the dissolved oxygen concentration in the culture solution was maintained at 2 to 3 ppm. Bubbling was detected with a bubble sensor and suppressed by automatic addition of a fatty acid-based defoaming agent.
At the completion of culture, each culture solution was measured for its carotenoid concentration by HPLC.

[3] = Glutamic acid concentration 30 mmol/L, 28° C. for 3 days
[4] = Glutamic acid concentration 50 mmol/L, 120 hours

N[C@@H](CCC(=O)O)C(=O)O [Glutamic acid, glutamic acid]
produced carotenoid concentration compared to the sample without glutamic acid ([1]; 30 mmol/L): higher produced carotenoid concentration
Adonixanthin [1, 3]: 0.3 mg/L
Astaxanthin [1, 3]: 0.3 mg/L
Lycopene [1, 3]: 19.6 mg/L
Total carotenoid [1, 3]: 20.2 mg/L
produced carotenoid concentration compared to the sample without glutamic acid ([2]; 50 mmol/L): higher produced carotenoid concentration
3-Hydroxyechinenone [2, 4]: 10 mg/L
Adonixanthin [2, 4]: 158 mg/L
Astaxanthin [2, 4]: 805 mg/L
Asteroidenone [2, 4]: 9 mg/L
Canthaxanthin [2, 4]: 101 mg/L
Echinenone [2, 4]: 62 mg/L
Phoenicoxanthin [2, 4]: 217 mg/L
Total carotenoid [2, 4]: 1458 mg/L
Zeaxanthin [2, 4]: 3 mg/L
β-Carotene [2, 4]: 93 mg/L
β-Cryptoxanthin [2, 4]: 0.5 mg/L
